Test results: paper PMC7126094 (Bioorganic & Medicinal Chemistry Letters, 2019)
Entries after “also recorded” stand apart in the source; their conditions may differ. Like-named read-outs stand apart in the source and are kept apart here.

Tests used:
[1] = system: L929: mouse fibroblast cell line
[2] = system: HFL-1: human embryonic lung cell line
[3] = mouse, microsomes
[4] = human, microsomes
in vitro = conditions: African green monkey
hERG = hERG (Homo sapiens, UniProt Q12809); test: hERG binding assay
[5] = system: VERO: African green monkey kidney cell line
[6] = system: NIH 3T3: mouse embryonic fibroblast cell line
[7] = rat, microsomes
[8] = system: CHO-K1: Chinese hamster ovary cell line

Chain of hERG (Q12809 whole entry): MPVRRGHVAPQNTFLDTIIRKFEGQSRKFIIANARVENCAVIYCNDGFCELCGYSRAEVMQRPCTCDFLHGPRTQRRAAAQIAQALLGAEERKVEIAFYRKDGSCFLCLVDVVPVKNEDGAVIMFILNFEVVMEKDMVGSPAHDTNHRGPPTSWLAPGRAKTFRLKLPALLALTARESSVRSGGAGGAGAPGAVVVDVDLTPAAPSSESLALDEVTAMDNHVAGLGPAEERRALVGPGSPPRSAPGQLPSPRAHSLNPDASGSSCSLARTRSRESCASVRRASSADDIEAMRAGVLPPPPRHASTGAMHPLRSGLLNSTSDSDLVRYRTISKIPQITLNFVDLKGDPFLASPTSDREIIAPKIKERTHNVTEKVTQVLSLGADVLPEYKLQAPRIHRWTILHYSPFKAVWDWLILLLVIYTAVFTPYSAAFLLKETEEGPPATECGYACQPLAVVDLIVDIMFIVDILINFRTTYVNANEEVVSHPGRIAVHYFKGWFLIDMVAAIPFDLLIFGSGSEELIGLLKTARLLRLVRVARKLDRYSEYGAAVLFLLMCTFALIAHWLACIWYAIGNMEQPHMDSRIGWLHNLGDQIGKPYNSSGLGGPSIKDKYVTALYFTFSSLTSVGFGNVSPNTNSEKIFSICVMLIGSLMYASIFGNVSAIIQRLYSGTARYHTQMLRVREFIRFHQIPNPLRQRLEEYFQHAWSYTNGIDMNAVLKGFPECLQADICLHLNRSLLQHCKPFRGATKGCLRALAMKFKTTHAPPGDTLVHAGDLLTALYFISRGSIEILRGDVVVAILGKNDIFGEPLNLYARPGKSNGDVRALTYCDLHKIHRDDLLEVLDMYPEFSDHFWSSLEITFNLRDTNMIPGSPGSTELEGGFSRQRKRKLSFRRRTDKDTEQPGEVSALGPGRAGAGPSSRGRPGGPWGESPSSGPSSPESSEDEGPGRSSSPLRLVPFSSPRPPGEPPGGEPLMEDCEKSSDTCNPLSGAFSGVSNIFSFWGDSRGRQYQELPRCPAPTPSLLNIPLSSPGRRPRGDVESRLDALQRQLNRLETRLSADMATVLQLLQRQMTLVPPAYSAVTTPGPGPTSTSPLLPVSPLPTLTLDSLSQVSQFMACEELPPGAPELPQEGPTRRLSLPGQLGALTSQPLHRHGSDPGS

CCCCNc1[nH]c2c(F)cc(F)cc2c(=O)c1C(C)=O [Compound 6k, 3-Acetyl-2-(butylamino)-6,8-difluoroquinolin-4(1H)-one]
inhibitory effect on MERS-CoV (in words) (MERS-CoV): no inhibitory effect

CC(C)C(=O)c1c(Nc2ccc(F)c(F)c2F)[nH]c2c(F)cc(F)cc2c1=O [Compound 6u, 6,8-Difluoro-3-isobutyryl-2-((2,3,4-trifluorophenyl)amino)quinolin-4(1H)-one]
cytotoxicity (in words) [1]: no cytotoxicity
cytotoxicity (in words) [2]: no cytotoxicity
metabolic stability (in words) [3]: good metabolic stability
metabolic stability (in words) [4]: good metabolic stability
IC50 (in vitro): 86.1 µM
hERG binding affinity (in words) (hERG): low hERG binding affinity
cytotoxicity (in words) [5]: no cytotoxicity
cytotoxicity (in words) [6]: no cytotoxicity
metabolic stability (in words) [7]: good metabolic stability
cytotoxicity (in words) [8]: no cytotoxicity

COc1cccc(Nc2[nH]c3c(F)cc(F)cc3c(=O)c2C(C)=O)c1 [Compound 6p, 3-Acetyl-6,8-difluoro-2-((3-methoxyphenyl)amino)quinolin-4(1H)-one]
inhibitory effect on MERS-CoV (in words) (MERS-CoV): no inhibitory effects

CC(=O)c1c(N2CCOCC2)[nH]c2c(F)cc(F)cc2c1=O [Compound 6j, 3-Acetyl-6,8-difluoro-2-morpholinoquinolin-4(1H)-one]
inhibitory effect on MERS-CoV (in words) (MERS-CoV): no inhibitory effect

CC(=O)c1c(NC(C)C)[nH]c2c(C(C)C)cccc2c1=O [Compound 6a, 3-Aetyl-8-isopropyl-2-(isopropylamino)quinolin-4(1H)-one]
inhibitory effect on MERS-CoV (in words) (MERS-CoV): no inhibitory effects

CC(=O)c1c(NC(C)C)[nH]c2c(C)cc(C)cc2c1=O [Compound 6b, 3-Aetyl-2-(isopropylamino)-6,8-dimethylquinolin-4(1H)-one]
inhibitory effect on MERS-CoV (in words) (MERS-CoV): no inhibitory effects

COc1ccc(Nc2[nH]c3c(F)cc(F)cc3c(=O)c2C(C)=O)cc1 [Compound 6q, 3-Acetyl-6,8-difluoro-2-((4-methoxyphenyl)amino)quinolin-4(1H)-one]
inhibitory effect on MERS-CoV (in words) (MERS-CoV): no inhibitory effects

5,6,8-Tichloro-2-((2,4-difluorophenyl)amino)-3-isobutyrylquinolin-4(1H)-one [Compound 6y]
IC50 (MERS-CoV; read-out: IC50 (MERS-CoV inhibitory activity)): 0.129 ± 0.026 µM

CC(=O)c1c(N2CCCCC2)[nH]c2c(F)cc(F)cc2c1=O [Compound 6i, 3-Acetyl-6,8-difluoro-2-(piperidin-1-yl)quinolin-4(1H)-one]
inhibitory effect on MERS-CoV (in words) (MERS-CoV): no inhibitory effect

CC(C)Nc1[nH]c2c(C(F)(F)F)cc(Cl)cc2c(=O)c1C(=O)c1ccccc1 [Compound 6c, 3-Bnzoyl-6-chloro-2-(isopropylamino)-8-(trifluoromethyl)quinolin-4(1H)-one]
inhibitory effect on MERS-CoV (in words) (MERS-CoV): detrimental for inhibitory effect; also recorded: completely abolished activity
